Data on 39 molecules can be found in PMC7761830, “Structure-Based Virtual Screening of Ultra-Large Library Yields Potent Antagonists for a Lipid GPCR” (Biomolecules, 2020).

For one test, the target named is T1, wild-type CysLT1R (Homo sapiens, UniProt Q9Y271).
T1 construct: expressed in transfected cells; host or cells: HEK293 (ATCC CRL-1573), transient transfection with Lipofectamine 3000
T1 sequence (Q9Y271 1-337): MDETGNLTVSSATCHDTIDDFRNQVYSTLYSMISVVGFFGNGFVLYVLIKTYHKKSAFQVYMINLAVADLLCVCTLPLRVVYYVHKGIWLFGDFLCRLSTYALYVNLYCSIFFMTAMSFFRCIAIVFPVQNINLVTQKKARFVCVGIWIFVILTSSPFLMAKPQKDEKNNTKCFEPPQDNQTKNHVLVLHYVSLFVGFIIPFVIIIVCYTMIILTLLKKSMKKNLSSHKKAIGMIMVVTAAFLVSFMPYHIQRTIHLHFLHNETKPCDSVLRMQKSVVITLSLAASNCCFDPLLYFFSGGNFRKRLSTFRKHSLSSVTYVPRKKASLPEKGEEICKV
In words: IP1 production assay, antagonist mode, co-stimulation with EC80 LTD4. The class given is cell-based. To be noted: for inhibition at 30 µM: HEK293, compound 30 µM, LTD4 at EC80, HEK293, wild-type CysLT1R, read-out: inhibition of LTD4-induced IP1 production, single-concentration screen; for Emax: HEK293, read-out: CysLT1R (LTD4) % Max Inhibition ± SEM. How it is done:
(§1) For this assay, we used the Cisbio IP-One kit as previously described. […] At 48 h post-transfection, the media was removed and the cells were washed with fresh Hank’s Balanced Salt Solution (HBSS). […] After compound stimulation, the cells were incubated for 1 h at 37 °C and stimulated with IP1-D2 and Ab-Crypt reagents in Lysis Buffer. The cells were then incubated at room temperature for an additional hour. […] Normalized data were plotted using either the three-parameter or four-parameter EC50/IC50 fits of GraphPad Prism 8 (San Diego). […] Data represent the means ± SEM of at least three independent experiments performed in quadruplicate.

Another test addresses T2, wild-type CysLT2R (Homo sapiens, UniProt Q9NS75).
T2 construct: expressed in transfected cells; host or cells: HEK293 (ATCC CRL-1573), transient transfection with Lipofectamine 3000
T2 sequence (Q9NS75 1-346): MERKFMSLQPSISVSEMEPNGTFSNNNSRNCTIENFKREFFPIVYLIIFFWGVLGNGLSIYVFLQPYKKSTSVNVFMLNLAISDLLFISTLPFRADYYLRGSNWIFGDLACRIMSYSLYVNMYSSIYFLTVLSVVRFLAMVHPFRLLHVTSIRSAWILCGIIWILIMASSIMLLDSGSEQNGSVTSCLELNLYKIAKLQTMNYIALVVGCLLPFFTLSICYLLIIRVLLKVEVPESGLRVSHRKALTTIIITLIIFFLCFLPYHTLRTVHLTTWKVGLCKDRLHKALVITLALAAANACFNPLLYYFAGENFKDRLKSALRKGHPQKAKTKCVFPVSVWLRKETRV
Described as above. It is filed as cell-based. To be noted: for inhibition at 30 µM: HEK293, compound 30 µM, LTD4 at EC80, HEK293, wild-type CysLT2R, read-out: inhibition of LTD4-induced IP1 production, single-concentration screen; for Emax: HEK293, read-out: CysLT2R (LTD4) % Max Inhibition ± SEM. How it is done:
as §1

For `CC(=O)c1ccc(OCC(=O)NC(CC(=O)O)c2cccs2)cc1` (stereo not shown) [BRI-12319], the remaining activity at 30 µM was 76.4% on wild-type CysLT1R and 78.4% on wild-type CysLT2R.

Take `COc1cccc(CC(=O)N[C@H]2[C@@H]3CC[C@@H](C3)[C@H]2C(=O)O)c1Cl` [BRI-12468]: the remaining activity at 30 µM at wild-type CysLT1R was 89.1%; on wild-type CysLT2R, 64.6%.

In the case of `Cc1cccc(-n2nnc(C(=O)Nc3ccc4c(c3)NC(=O)CO4)c2C)c1` [BRI-12333], the results for the remaining activity at 30 µM on wild-type CysLT1R and on wild-type CysLT2R were 77.5% and 70.5%, respectively.

As to `O=C(O)CNC(=O)c1ccc(NS(=O)(=O)c2cccs2)cc1` [BRI-12323], the remaining activity at 30 µM at wild-type CysLT1R is 80.5%; at wild-type CysLT2R it was 100%.

As to `Cc1cccn2cc(-c3cccc(NC(=O)Cn4c(=O)[nH]c(=O)c5ccccc54)c3)nc12` [BRI-12438], the remaining activity at 30 µM at wild-type CysLT1R was found to be 62.6%; on wild-type CysLT2R it was 88.7%.

Turning to `COc1ccc(N(CCC(=O)O)S(=O)(=O)c2csc(-c3ccc(F)cc3)n2)cc1` [BRI-12432], the remaining activity at 30 µM came out at 81% at wild-type CysLT1R and 76.9% on wild-type CysLT2R.

For the molecule `CC(C)c1c(C(=O)Nc2ccc3[nH]c(=O)[nH]c3c2)cnn1-c1ccccn1` [BRI-12339], the remaining activity at 30 µM amounted to 82% on wild-type CysLT1R and 99.8% on wild-type CysLT2R.

On to `O=C(O)CC(NC(=O)Cn1ncc2ccccc21)c1ccc(F)cc1` (stereo not shown) [BRI-12305], for which the remaining activity at 30 µM at wild-type CysLT1R is 93.1%; at wild-type CysLT2R, 109%.

Take `O=C(O)COc1ccc(C=Cc2ccc3cccc(O)c3n2)cc1` [BRI-12340]: the remaining activity at 30 µM was determined as 70.2% on wild-type CysLT1R and 78.9% on wild-type CysLT2R.

As to `O=C(COC1CCCc2ccccc21)Nc1cccc(NC(=O)NCc2ccncc2)c1` (stereo not shown) [BRI-12405], the remaining activity at 30 µM at wild-type CysLT1R came out at 70%. In addition, at wild-type CysLT2R, the remaining activity at 30 µM is 40.6%, the inhibition at 30 µM was at least 50% and the Emax amounted to 23 ± 6%.

Consider `O=C(O)CNC(=O)c1ccc(NC(=O)CCn2cccc2)cc1` [BRI-12442], for which the remaining activity at 30 µM was 74.5% at wild-type CysLT1R and 51.7% on wild-type CysLT2R.

Consider `CC(C)(C)CNC(=O)c1ccc(C(=O)Nc2ccccc2CC(=O)O)cc1` [BRI-12407], for which the remaining activity at 30 µM on wild-type CysLT1R came to 83%; on wild-type CysLT2R it was 70.4%.

With `C[C@@H]1C[C@H](C(=O)Nc2cccc(NC(=O)c3cccs3)c2)O[C@H]1C(=O)O` [BRI-12306], the remaining activity at 30 µM on wild-type CysLT1R is 81.2%; at wild-type CysLT2R, 112%.

Turning to `O=C(O)CNC(=O)c1ccc(S(=O)(=O)Nc2ccc3sncc3c2)cc1` [BRI-12413], on wild-type CysLT1R, the remaining activity at 30 µM turned out to be 80%. For the same molecule, at wild-type CysLT2R, the remaining activity at 30 µM worked out at 49.5%, the inhibition at 30 µM is at least 50% and the Emax came to 5 ± 6%.

As for `O=C(O)CNC(=O)Cc1ccc(NC(=O)c2n[nH]c3ccccc23)cc1` [BRI-12313], the remaining activity at 30 µM at wild-type CysLT1R was 88.6%; at wild-type CysLT2R, 110%.

With `CCC(=O)Nc1ccc(S(=O)(=O)NC(C)(C)CC(=O)O)cc1` [BRI-12472], the remaining activity at 30 µM at wild-type CysLT1R amounted to 95.8%; at wild-type CysLT2R, 66.4%.

On to `O=C(O)CNC(=O)c1ccc(NC(=O)c2cc3ccccn3c2)cc1` [BRI-12317], for which the remaining activity at 30 µM on wild-type CysLT1R amounted to 86.4%; at wild-type CysLT2R, 89.2%.

`Cn1cc(C(N)=O)c(NC(=O)CCc2cccc(C(F)(F)F)c2)n1` [BRI-12327]: the remaining activity at 30 µM at wild-type CysLT1R amounted to 68.5%; at wild-type CysLT2R, 73.4%.

As for `CN(C(=O)c1ccc(C(=O)Nc2ccsc2C(N)=O)cc1)c1ccccc1` [BRI-12430], the remaining activity at 30 µM came out at 79.5% on wild-type CysLT1R and 92.5% on wild-type CysLT2R.

For `O=C1CCc2cc(NC(=O)C(=O)NCCc3ccc4c(c3)OCO4)ccc2N1` [BRI-12338], the remaining activity at 30 µM on wild-type CysLT1R stood at 66.4%; at wild-type CysLT2R it was 95.5%.

On to `CC(Sc1nc(Nc2ccccc2)c2ccccc2n1)C(=O)N1CCNC1=O` (stereo not shown) [BRI-12358], for which the remaining activity at 30 µM at wild-type CysLT1R is 58%; at wild-type CysLT2R, 73.5%.

Regarding `Cc1sc(NC(=O)C(C)(CC(=O)O)C2CCCCC2)c(C(N)=O)c1-c1ccccc1` (stereo not shown) [BRI-12474], the remaining activity at 30 µM is 118% at wild-type CysLT1R and 106% on wild-type CysLT2R.

Take `CC(=O)Nc1ccccc1OS(=O)(=O)c1cccc2cc(C)cnc12` [BRI-12318]: the remaining activity at 30 µM on wild-type CysLT1R came to 74.1%; on wild-type CysLT2R, 88.2%.

For the molecule `Cc1ccc(-c2nnc(SCC(=O)NC(N)=O)nc2-c2ccc(C)cc2)cc1` [BRI-12360], the remaining activity at 30 µM came to 74.3% on wild-type CysLT1R and 90.5% on wild-type CysLT2R.

For `CN(CC(=O)O)C(=O)c1ccc(-c2ccc(NC(=O)C(C)(C)C)nc2)o1` [BRI-12450], on wild-type CysLT1R, the remaining activity at 30 µM amounted to 57.6%, the inhibition at 30 µM was at least 50% and the Emax stood at 44 ± 25%. Further, at wild-type CysLT2R, the remaining activity at 30 µM was 41.1%, the inhibition at 30 µM is at least 50% and the Emax is 24 ± 8%.

On to `O=C(NC(C(=O)O)c1ccccc1F)c1ccc(Cl)c(NC(=O)c2cccs2)c1` (stereo not shown) [BRI-12403], for which the results for the remaining activity at 30 µM at wild-type CysLT1R and at wild-type CysLT2R were 89.5% and 72%, respectively.

Regarding `O=C(O)CNC(=O)c1ccc(NC(=O)COCc2ccccc2)cc1` [BRI-12473], the remaining activity at 30 µM on wild-type CysLT1R stood at 86.5%; on wild-type CysLT2R, 66.6%.

Consider `O=C(O)[C@@H]1CC[C@H](C(=O)Nc2cccc(-c3nc4ccccc4[nH]3)c2)C1` [BRI-12309], for which the remaining activity at 30 µM at wild-type CysLT1R amounted to 87.8%; on wild-type CysLT2R, 87.4%.

`NC(=O)COc1cccc(C(=O)NC(CC(=O)O)c2ccc(Cl)c(F)c2)c1` (stereo not shown) [BRI-12330]: the remaining activity at 30 µM at wild-type CysLT1R was 72.1%; at wild-type CysLT2R it was 93.4%.

As to `O=C(NCC1(O)CN(C(=O)c2ccc(=O)[nH]c2)C1)c1ccc2c(c1)CCC2` [BRI-12467], the remaining activity at 30 µM at wild-type CysLT1R came out at 69.4%; on wild-type CysLT2R it was 53.8%.

Turning to `O=C(O)COc1cccc(CNC(=O)c2cnc(-c3ncccn3)s2)c1` [BRI-12427], the remaining activity at 30 µM at wild-type CysLT1R came to 78.7%. Also, at wild-type CysLT2R, the remaining activity at 30 µM amounted to 42.4%, the inhibition at 30 µM was at least 50% and the Emax was 15 ± 13%.

As for `CC1CC(C(=O)O)CN(C(=O)Nc2cccc(NC(=O)c3ccccc3)c2)C1` (stereo not shown) [BRI-12308], the remaining activity at 30 µM at wild-type CysLT1R came out at 95.6%; at wild-type CysLT2R, 101%.

As for `Cc1cccc(COc2ccc(CNS(=O)(=O)N(C)CCC(=O)O)cc2)c1` [BRI-12411], on wild-type CysLT1R, the Ki (as a rule, a dissociation constant, usually derived from enzyme kinetics or from competition with a known ligand) turned out to be 720 ± 160 nM; the remaining activity at 30 µM came to 55.9%; the inhibition at 30 µM is at least 50%; the Emax is 66 ± 18%. In addition, the “extent of inhibition of LTD4-mediated response at CysLT1R (in words)” value at wild-type CysLT1R (antagonist mode, 1.5 to 100 µM) was “partial antagonism”. On wild-type CysLT2R, the remaining activity at 30 µM was determined as 57.3%.

`CC1(c2ccc(C(=O)Nc3nc(-c4ccccc4)cs3)cc2)NC(=O)NC1=O` (stereo not shown) [BRI-12328]: on wild-type CysLT1R, the remaining activity at 30 µM stood at 21%, the inhibition at 30 µM is at least 50% and the Emax stood at 33 ± 8%. In addition, on wild-type CysLT2R, the remaining activity at 30 µM came to 38.1%, the inhibition at 30 µM is at least 50% and the Emax is 5 ± 7%.

For the molecule `O=C(O)C(Cc1c[nH]c2ncccc12)NS(=O)(=O)c1csc(-c2ccc(F)cc2)n1` (stereo not shown) [BRI-12439], the remaining activity at 30 µM at wild-type CysLT1R turned out to be 88.3%; at wild-type CysLT2R, 72.4%.

On to `NC(=O)CNC(=O)c1ccc(CNC(=O)c2cc3ccc(F)cc3[nH]c2=O)cc1` [BRI-12453], for which the remaining activity at 30 µM on wild-type CysLT1R is 88.3%. For the same molecule, at wild-type CysLT2R, the remaining activity at 30 µM worked out at 49.5%, the inhibition at 30 µM is at least 50% and the Emax was found to be 3 ± 7%.

As to `CNC(=O)c1cccc(NC(=O)CN2c3cccc4cccc(c34)S2(=O)=O)c1` [BRI-12322], the remaining activity at 30 µM on wild-type CysLT1R stood at 69.8%; on wild-type CysLT2R, 79.1%.

Consider `O=C(O)CN(CC(=O)O)S(=O)(=O)Cc1cc(Cl)cc(Cl)c1` [BRI-12456], for which the remaining activity at 30 µM on wild-type CysLT1R was 96.3%; at wild-type CysLT2R, 65.2%.

For the molecule `Cn1nc(C2CC2)nc1CC(=O)Nc1ccc(N2CCNC2=O)cc1` [BRI-12402], on wild-type CysLT1R, the remaining activity at 30 µM was 66.8%. Also, at wild-type CysLT2R, the remaining activity at 30 µM was found to be 40.2%, the inhibition at 30 µM was at least 50% and the Emax came out at 8 ± 4%.
